Laboratory results published in patent US4482565A, “β-Lactam-containing antibacterial agents and β-lactamase inhibitors” (Farmitalia Carlo Erba S.p.A., priority 1981, dated 1984).
Values after ≈ are worked out from the molar mass of the structure shown. Read-outs that look alike come from different tables or passages of the source.

Legend:
Format in all cases: cell-based
[1] = tested on: Staphylococcus aureus 209P; experiment: in vitro antibacterial activity (MIC); conditions: collection strain, read-out: MIC (minimal inhibitory concentration)
[2] = tested on: Staphylococcus aureus 153; experiment: in vitro antibacterial activity (MIC); conditions: lactamase producer, read-out: MIC (minimal inhibitory concentration)
[3] = tested on: Staphylococcus aureus PV2; experiment: in vitro antibacterial activity (MIC); conditions: read-out: MIC (minimal inhibitory concentration)
[4] = tested on: Staphylococcus aureus Smith; experiment: in vitro antibacterial activity (MIC); conditions: collection strain, read-out: MIC (minimal inhibitory concentration)
Streptococcus pyogenes = experiment: in vitro antibacterial activity (MIC); conditions: read-out: MIC (minimal inhibitory concentration)
Escherichia coli B = experiment: in vitro antibacterial activity (MIC); conditions: read-out: MIC (minimal inhibitory concentration)
Escherichia coli V14 = experiment: in vitro antibacterial activity (MIC); conditions: read-out: MIC (minimal inhibitory concentration)
Escherichia coli V23 = experiment: in vitro antibacterial activity (MIC); conditions: read-out: MIC (minimal inhibitory concentration)
Enterobacter sp V19 = experiment: in vitro antibacterial activity (MIC); conditions: read-out: MIC (minimal inhibitory concentration)
[5] = tested on: Klebsiella pneumoniae ATCC 10031; experiment: in vitro antibacterial activity (MIC); conditions: ATCC10031, Klebsiella pneumoniae ATCC 10031 (first listing), read-out: MIC (minimal inhibitory concentration)
Klebsiella sp. R2 = experiment: in vitro antibacterial activity (MIC); conditions: read-out: MIC (minimal inhibitory concentration)
Proteus vulgaris V15 = experiment: in vitro antibacterial activity (MIC); conditions: read-out: MIC (minimal inhibitory concentration)
Proteus mirabilis V15 = experiment: in vitro antibacterial activity (MIC); conditions: read-out: MIC (minimal inhibitory concentration)
Proteus mirabilis 525 = experiment: in vitro antibacterial activity (MIC)
Shigella flexneri = experiment: in vitro antibacterial activity (MIC); conditions: read-out: MIC (minimal inhibitory concentration)
Description: A series of tests was carried out in vitro to compare the activities of (5R)-acetoxymethyl-2-acetoxymethyl-2-penum-3-carboxylate (Laboratory code FCE/20077/B40/341), (5R) acetoxymethyl-2-[(1-methyl-1H-tetrazol-5-yl)-thiomethyl]-2-penem-3-carboxylate (compound A), three reference compounds (ampicillin, cefoxitin, and thienamycin), and compound 387, which is (5R)-2-acetoxymethyl-6-(1-hydroxyethyl)-2-penem-3-carboxylic acid. The acetoxymethoxy ester of compound 387 is prepared in Example 51 and the sodium salt of the acid is prepared in Example 98 infra. Table 1 below reports the results of the above assays as MIC (minimal inhibitory concentration).

Pseudomonas aeruginosa = experiment: in vitro antibacterial activity (MIC); conditions: read-out: MIC (minimal inhibitory concentration)
Salmonella typhimurium [6] = experiment: in vitro antibacterial activity (MIC); conditions: Salmonella enterica, Salmonella typhimurium (first listing), read-out: MIC (minimal inhibitory concentration)
Salmonella panamae F15 = experiment: in vitro antibacterial activity (MIC)
[7] = tested on: Salmonella Saint Paul F20; experiment: in vitro antibacterial activity (MIC); conditions: read-out: MIC (minimal inhibitory concentration)
Salmonella derby F14 = experiment: in vitro antibacterial activity (MIC); conditions: Salmonella enterica, read-out: MIC (minimal inhibitory concentration)
[8] = tested on: Salmonella montevideo F16; experiment: in vitro antibacterial activity (MIC); conditions: Salmonella enterica, read-out: MIC (minimal inhibitory concentration)
Escherichia coli B Cef R = experiment: in vitro antibacterial activity (MIC); conditions: read-out: MIC (minimal inhibitory concentration)
Escherichia coli RGN 238 = experiment: in vitro antibacterial activity (MIC); conditions: RGN238, lactamase producer, read-out: MIC (minimal inhibitory concentration)
Escherichia coli P 453 = experiment: in vitro antibacterial activity (MIC)
Escherichia coli R 997 = experiment: in vitro antibacterial activity (MIC); conditions: R997, read-out: MIC (minimal inhibitory concentration)
Escherichia coli R 57 B = experiment: in vitro antibacterial activity (MIC); conditions: R57B, read-out: MIC (minimal inhibitory concentration)
Escherichia coli RP 1 = experiment: in vitro antibacterial activity (MIC); conditions: RP1, read-out: MIC (minimal inhibitory concentration)
Escherichia coli R 46 = experiment: in vitro antibacterial activity (MIC)
Escherichia coli R 6 K = experiment: in vitro antibacterial activity (MIC); conditions: R6K, read-out: MIC (minimal inhibitory concentration)
[9] = tested on: Pseudomonas aeruginosa FI; experiment: in vitro antibacterial activity (MIC); conditions: collection strain, read-out: MIC (minimal inhibitory concentration)
[10] = tested on: Pseudomonas aeruginosa ATCC 2598; experiment: in vitro antibacterial activity (MIC); conditions: ATCC2598, collection strain, read-out: MIC (minimal inhibitory concentration)
[11] = tested on: Klebsiella aerogenes ATCC 1082 E; experiment: in vitro antibacterial activity (MIC)
[12] = tested on: Klebsiella pneumoniae ATCC 10031; experiment: in vitro antibacterial activity (MIC), second listing of the strain; conditions: ATCC10031, collection strain (second listing), read-out: MIC (minimal inhibitory concentration)
[13] = tested on: Enterobacter cloacae P 99; experiment: in vitro antibacterial activity (MIC); conditions: P99, read-out: MIC (minimal inhibitory concentration)
Enterobacter cloacae 214 = experiment: in vitro antibacterial activity (MIC); conditions: lactamase producer, read-out: MIC (minimal inhibitory concentration)
[14] = tested on: Salmonella abortivoequina; experiment: in vitro antibacterial activity (MIC); conditions: collection strain, read-out: MIC (minimal inhibitory concentration)
Salmonella typhimurium [15] = experiment: in vitro antibacterial activity (MIC), collection strain; conditions: Salmonella enterica, read-out: MIC (minimal inhibitory concentration)
Proteus mirabilis = experiment: as above; conditions: read-out: MIC (minimal inhibitory concentration)
[16] = in vitro, Escherichia coli B, collection strain
[17] = in vitro, Proteus mirabilis 525, read-out: MIC (minimal inhibitory concentration)
[18] = in vitro, Salmonella panamae F15, read-out: MIC (minimal inhibitory concentration)
[19] = P453, in vitro, Escherichia coli P 453, lactamase producer, read-out: MIC (minimal inhibitory concentration)
[20] = ATCC1082, in vitro, Klebsiella aerogenes ATCC 1082 E, lactamase producer, read-out: MIC (minimal inhibitory concentration)

SMILES | MIC [1] [µg/mL] | MIC [2] [µg/mL] | MIC [3] [µg/mL] | MIC [4] [µg/mL] | MIC (Escherichia coli V14) [µg/mL] | MIC (Escherichia coli V23) [µg/mL] | MIC (Enterobacter sp V19) [µg/mL] | MIC (Proteus vulgaris V15) [µg/mL] | MIC (Proteus mirabilis V15) [µg/mL] | MIC (Shigella flexneri) [µg/mL] | MIC (Salmonella typhimurium [6]) [µg/mL] | MIC [7] [µg/mL] | MIC (Salmonella derby F14) [µg/mL] | MIC [8] [µg/mL] | MIC (Escherichia coli B Cef R) [µg/mL] | MIC (Escherichia coli RGN 238) [µg/mL] | MIC (Escherichia coli R 997) [µg/mL] | MIC (Escherichia coli RP 1) [µg/mL] | MIC (Escherichia coli R 6 K) [µg/mL] | MIC (Escherichia coli B; [16]) [µg/mL] | other results
CO[C@@]1(NC(=O)Cc2cccs2)C(=O)N2C(C(=O)O)=C(COC(N)=O)CS[C@@H]21 [Cefoxitin] | 0.78 (≈ 1.82 µM) | 0.78 (≈ 1.82 µM) | 0.78 (≈ 1.82 µM) | 0.78 (≈ 1.82 µM) | 3.12 (≈ 7.3 µM) | 12.5 (≈ 29.2 µM) | 12.5 (≈ 29.2 µM) | 0.78 (≈ 1.82 µM) | 0.78 (≈ 1.82 µM) | 0.78 (≈ 1.82 µM) | 3.12 (≈ 7.3 µM) | 3.12 (≈ 7.3 µM) | 3.12 (≈ 7.3 µM) | 3.12 (≈ 7.3 µM) | > 100 | 3.12 (≈ 7.3 µM) | 6.25 (≈ 14.6 µM) | 1.56 (≈ 3.65 µM) | 3.1 (≈ 7.25 µM) |  | MIC (Streptococcus pyogenes): 1.56 µg/mL (≈ 3.65 µM); MIC (Escherichia coli B; Escherichia coli): 1.56 µg/mL (≈ 3.65 µM); MIC [5]: 0.78 µg/mL (≈ 1.82 µM); MIC (Klebsiella sp. R2): 12.5 µg/mL (≈ 29.2 µM); MIC (Proteus mirabilis 525; Proteus mirabilis, 525, read-out: MIC (minimal inhibitory concentration)): 1.56 µg/mL (≈ 3.65 µM); MIC (Pseudomonas aeruginosa): 6.25 µg/mL (≈ 14.6 µM); MIC (Salmonella panamae F15; Salmonella, F15, read-out: MIC (minimal inhibitory concentration)): 1.56 µg/mL (≈ 3.65 µM); MIC (Escherichia coli P 453; Escherichia coli, P453, read-out: MIC (minimal inhibitory concentration)): 1.56 µg/mL (≈ 3.65 µM); MIC (Escherichia coli R 57 B; Escherichia coli): 1.56 µg/mL (≈ 3.65 µM); MIC (Escherichia coli R 46; Escherichia coli, R46, read-out: MIC (minimal inhibitory concentration)): 1.56 µg/mL (≈ 3.65 µM); MIC [9]: 6.25 µg/mL (≈ 14.6 µM); MIC [10]: > 100 µg/mL; MIC ([11]; Klebsiella aerogenes, ATCC1082, read-out: MIC (minimal inhibitory concentration)): 6.25 µg/mL (≈ 14.6 µM); MIC [12]: 0.78 µg/mL (≈ 1.82 µM); MIC [13]: 100 µg/mL (≈ 234 µM); MIC (Enterobacter cloacae 214): > 100 µg/mL; MIC [14]: 0.78 µg/mL (≈ 1.82 µM); MIC (Salmonella typhimurium [15]; TYPHIMURIUM): 1.56 µg/mL (≈ 3.65 µM); MIC (Proteus mirabilis): 1.56 µg/mL (≈ 3.65 µM)
CC(=O)OCOC(=O)C1=C(CSc2nnnn2C)S[C@@H]2CC(=O)N12 [Compound A, (5R)-Acetoxymethyl-2-[(1-methyl-1-H-tetrazol-5-yl)-thiomethyl]-2-penem-3-carboxylate] | 0.39 (≈ 1.05 µM) | 0.78 (≈ 2.1 µM) | 0.78 (≈ 2.1 µM) | 0.39 (≈ 1.05 µM) | 0.78 (≈ 2.1 µM) | 0.78 (≈ 2.1 µM) | > 100 | 6.25 (≈ 16.8 µM) | 0.78 (≈ 2.1 µM) | 0.39 (≈ 1.05 µM) | 0.78 (≈ 2.1 µM) | 0.78 (≈ 2.1 µM) | 0.78 (≈ 2.1 µM) | 0.78 (≈ 2.1 µM) |  |  |  |  |  | 0.78 (≈ 2.1 µM) | MIC (Streptococcus pyogenes; in vitro): 0.78 µg/mL (≈ 2.1 µM); MIC [5]: 3.12 µg/mL (≈ 8.4 µM); MIC (Proteus mirabilis 525; [17]): 0.78 µg/mL (≈ 2.1 µM); MIC (Pseudomonas aeruginosa; in vitro): 0.39 µg/mL (≈ 1.05 µM); MIC (Salmonella panamae F15; [18]): 0.78 µg/mL (≈ 2.1 µM)
C[C@@H](O)[C@H]1C(=O)N2C(C(=O)O)=C(SCCN)C[C@H]12 [Thienamycin] | ≤ 0.39 |  |  |  |  |  |  |  |  |  |  |  |  |  | 12.5 (≈ 45.9 µM) | 0.36 (≈ 1.32 µM) | 0.36 (≈ 1.32 µM) | 0.36 (≈ 1.32 µM) | 0.78 (≈ 2.86 µM) | 0.78 (≈ 2.86 µM) | MIC (Pseudomonas aeruginosa): 12.5 µg/mL (≈ 45.9 µM); MIC (Escherichia coli P 453; [19]): 0.78 µg/mL (≈ 2.86 µM); MIC [9]: 12.5 µg/mL (≈ 45.9 µM); MIC [11, 20]: 1.56 µg/mL (≈ 5.73 µM); MIC [12]: 1.56 µg/mL (≈ 5.73 µM)
CC(=O)OCC1=C(C(=O)O)N2C(=O)C(C(C)O)[C@H]2S1 (stereo partly drawn) [Example 387, (5R)-2-acetoxymethyl-6-(1-hydroxyethyl)-2-penem-3-carboxylic acid] | 0.095 (≈ 0.331 µM) | 0.045 (≈ 0.157 µM) |  | 0.045 (≈ 0.157 µM) |  |  |  |  |  |  | 0.39 (≈ 1.36 µM) |  |  |  | 25 (≈ 87 µM) | 0.78 (≈ 2.71 µM) | 0.78 (≈ 2.71 µM) | 0.39 (≈ 1.36 µM) | 0.78 (≈ 2.71 µM) | 0.78 (≈ 2.71 µM) | MIC (Streptococcus pyogenes; in vitro): 0.19 µg/mL (≈ 0.661 µM); MIC (Pseudomonas aeruginosa; in vitro): 1.56 µg/mL (≈ 5.43 µM); MIC (Escherichia coli P 453; [19]): 0.78 µg/mL (≈ 2.71 µM); MIC (Escherichia coli R 57 B; in vitro, Escherichia coli R 57 B, lactamase producer): 0.78 µg/mL (≈ 2.71 µM); MIC (Escherichia coli R 46; R46, in vitro, Escherichia coli R 46, lactamase producer, read-out: MIC (minimal inhibitory concentration)): 0.78 µg/mL (≈ 2.71 µM); MIC [9]: 1.56 µg/mL (≈ 5.43 µM); MIC [10]: > 25 µg/mL; MIC [11, 20]: 1.56 µg/mL (≈ 5.43 µM); MIC [12]: 0.78 µg/mL (≈ 2.71 µM); MIC [13]: 3.12 µg/mL (≈ 10.9 µM); MIC (Enterobacter cloacae 214): 12.5 µg/mL (≈ 43.5 µM); MIC [14]: 0.19 µg/mL (≈ 0.661 µM); MIC (Salmonella typhimurium [15]; in vitro, Salmonella Typhimurium, collection strain (second listing)): 0.39 µg/mL (≈ 1.36 µM); MIC (Proteus mirabilis; in vitro, collection strain): 0.39 µg/mL (≈ 1.36 µM)
CC(=O)OCOC(=O)C1=C(COC(C)=O)S[C@@H]2CC(=O)N12 [FCE/20077/B40/341, (5R)-Acetoxymethyl-2-acetoxymethyl-2-penem-3-carboxylate] | 0.39 (≈ 1.24 µM) | 1.56 (≈ 4.95 µM) | 0.39 (≈ 1.24 µM) | ≤ 0.19 | 1.56 (≈ 4.95 µM) | 3.12 (≈ 9.9 µM) | 12.5 (≈ 39.6 µM) | 3.12 (≈ 9.9 µM) | 0.39 (≈ 1.24 µM) | 0.39 (≈ 1.24 µM) | 1.56 (≈ 4.95 µM) | 1.56 (≈ 4.95 µM) | 3.12 (≈ 9.9 µM) | 3.12 (≈ 9.9 µM) |  |  |  |  |  | 1.56 (≈ 4.95 µM) | MIC (Streptococcus pyogenes; in vitro): 3.12 µg/mL (≈ 9.9 µM); MIC (Klebsiella sp. R2): 25 µg/mL (≈ 79.3 µM); MIC (Proteus mirabilis 525; [17]): 3.12 µg/mL (≈ 9.9 µM); MIC (Pseudomonas aeruginosa; in vitro): 3.12 µg/mL (≈ 9.9 µM); MIC (Salmonella panamae F15; [18]): 1.56 µg/mL (≈ 4.95 µM)
